Data taken from US20040242886A1, “Monocyclic diazodioxide based Bcl-2 protein antagonists related applications” (priority 2003, published 2004).
Read-outs that look alike come from different tables or passages of the source.

Legend:
[1] = system: Bcl-2 and Bcl XL; conditions: literature value, cited from earlier work
[2] = system: cell; conditions: cited from earlier work
[3] = system: HL60, human leukemic cells expressing high Bcl-2 and low Bcl-XL levels; assay: Acute cytotoxicity (apoptotic activity), Alamar Blue viability, HL-60 cells; format: cell-based; conditions: Homo sapiens, HL-60, 4 h; read-out: LC 50 (μM) HL-60
Protocol: (§1) The biological activity of the compounds provided herein were assessed in cellular system by the method similar to the one described by Amundson et al. (Amundson, S. A. et al, Cancer Research 2000, 60, 6101-6110), which is incorporated herein by reference in its entirety. The compounds were tested for acute cytotoxicity (apoptotic activity) using two human cancer cell lines expressing high levels of either Bcl-2 or BCl-XL. HL60, human leukemic cells expressing high Bcl-2 and low BCl-XL levels, and A549 human lung cells expressing low Bcl-2 and high BCl-XL levels, were incubated with the compounds at concentrations between 0.5 and 1000 μg/mL for 4 hours at 37° C., 5% CO2. The number of viable cells were measured by mitochondrial transformation of Alamar Blue to a fluorescent dye. LC50 values for each test compound and controls are provided in the individual examples that follow.
(§2) The compounds provided herein were tested for acute cytoxicity (apoptotic activity) using two human cancer cell lines expressing high levels of either Bcl-2 or BCl-XL. HL-60 cells expressing high Bcl-2 and low Bcl-XL levels, and A549 human lung cells expressing low Bcl-2 and high Bcl-XL levels were incubated with the compounds provided herein at concentrations between 0.5 and 1000 μg/mL for 4 hours at 37° C., 5% CO2. The number of viable cells were measured by mitochondrial transformation of Alamar Blue to a fluorescent dye. As negative controls, the compounds were tested against the cell lines with low levels of Bcl-2 expression, viz., MDA-453 cells. LC50 values for each compound and controls were determined.

[4] = system: A549 human lung cells expressing low Bcl-2 and high Bcl-XL levels; assay: Acute cytotoxicity (apoptotic activity), Alamar Blue viability, A549 cells; format: cell-based; conditions: Homo sapiens, A549, 4 h; read-out: LC 50 (μM) A549
Protocol: as §1, §2

## CC(C)Cc1cc(-c2ccc(-c3ccc(OCC(=O)O)c(CC(C)C)c3)c(Cc3cccc4ccccc34)c2)ccc1CCC(=O)O [compound 7]
[1]; Bcl-2 antagonist
  IC50: 0.114 µM

## O=C(Nc1cc(S(=O)(=O)c2ccc(Cl)cc2)ccc1Cl)c1cc(Cl)cc(I)c1O [compound 6, reference compound]
[1]; protein not specified
  IC50: 3.3 µM
[2]; read-out: LC50 (cell), cell line not specified, literature value
  CC50: ~30 µM
[3]
  CC50: < 50 µM
[4]
  CC50: > 200 µM

## Cc1cc2c(C(C)C)c(O)c(O)c(C=O)c2c(O)c1-c1c(C)cc2c(C(C)C)c(O)c(O)c(C=O)c2c1O [compound 1]
[2]
  CC50: 1.5 µM
